Like-named read-outs stand apart in the source and are kept apart here.
Columns and labels:
[1] = test system: C. elegans; experiment: Aldicarb sensitivity (paralysis) of C. elegans; type: in vivo
Text: (§1) Based on studies of other known mutants in C. elegans, hypersensitivity to aldicarb may indicate an increase in synaptic transmission of acetylcholine compared with wild-type animals.

[2] = test system: C. elegans
Text: The F2 population was screened to identify animals that were homozygous for recessive mutations or heterozygous for dominant mutations that alter sensitivity to the effects of ethanol on locomotion. Wild-type C. elegans normally move with a sinusoid pattern of locomotion, but when exposed to high concentrations of ethanol, they display extreme, reversible (after the removal of ethanol) uncoordination and paralysis. Animals that are resistant to the effects of ethanol display the sinusoid pattern of locomotion even in the presence of high concentrations of ethanol. To identify the mutants, animals of the F2 generation were washed from their plates into 1.5 ml tubes, rinsed free of bacteria and incubated in a solution of 400 mM ethanol for 30-50 min. The worms were then transferred to the center of 100 mm petri plates that held media containing 400 mM ethanol and a circle of E. coli (OP50) bacteria on the periphery of the media. […] Animals that moved to the bacteria quickly and with a wild-type pattern of locomotion were identified as ethanol-resistant candidates.
The slo-1 gene is expressed in most, if not all neurons, and in body wall muscle but not in pharyngeal muscle. […] BK4.1 has the slo-1 cdNA fused with the promoter from the C. elegans body muscle myosin (myo-3) gene, which is expressed exclusively in body muscle. We transformed animals homozygous for a known null mutation of slo-1(js118) with each of these DNA constructs separately where the concentration of the BK3.1 or BK4.1 constructs was 20 ng/μ1 in the injection solution. So that we could identify transformed progeny of the injected animals we coinjected a DNA construct that expresses the green fluorescent protein (GFP) in neurons with BK3.1 and a construct that expresses GFP in body muscle with BK4.1. In this way we could examine the progeny of the injected animals under a UV microscope and any animals showing GFP fluorescence have been transformed with the injected DNA. If transformed animals are picked to individual plates and their progeny examined for the presence of GFP, only the animals that are germ-line transformants will have progeny expressing GFP.
(§2) To rule out the possibility of hyperactivity contributing to the resistance seen in slo-1, we compared the level of resistance caused by mutations in slo-1 with the resistance induced by mutations in other regulators of neuron activity including loss-of-function mutations in dgk-1 and goa-1 and a gain-of-function mutation in egl-30. Each of these mutants appears phenotypically hyperactive with increased amplitude of body bends and hyperactive egg laying. […] When SLO-1 is absent the ethanol […] in the nervous system and its effects are greatly minimized.

[3] = test system: C. elegans; remark: listed apart in the source
Text: These mutants were examined for the effect of ethanol on two behaviors other than locomotion: egg laying and pharyngeal pumping. […] Unlike wild-type worms, the egg-laying behavior of BZ6, BZ7 and BZ73 worms was unaffected by high doses of ethanol.
as §2

[4] = test system: C. elegans; remark: listed apart in the source
Text: as §1

[5] = biological target: BK channels (Homo sapiens, UniProt Q12791); details: cited from earlier work
Chain of BK channels (Q12791 whole entry): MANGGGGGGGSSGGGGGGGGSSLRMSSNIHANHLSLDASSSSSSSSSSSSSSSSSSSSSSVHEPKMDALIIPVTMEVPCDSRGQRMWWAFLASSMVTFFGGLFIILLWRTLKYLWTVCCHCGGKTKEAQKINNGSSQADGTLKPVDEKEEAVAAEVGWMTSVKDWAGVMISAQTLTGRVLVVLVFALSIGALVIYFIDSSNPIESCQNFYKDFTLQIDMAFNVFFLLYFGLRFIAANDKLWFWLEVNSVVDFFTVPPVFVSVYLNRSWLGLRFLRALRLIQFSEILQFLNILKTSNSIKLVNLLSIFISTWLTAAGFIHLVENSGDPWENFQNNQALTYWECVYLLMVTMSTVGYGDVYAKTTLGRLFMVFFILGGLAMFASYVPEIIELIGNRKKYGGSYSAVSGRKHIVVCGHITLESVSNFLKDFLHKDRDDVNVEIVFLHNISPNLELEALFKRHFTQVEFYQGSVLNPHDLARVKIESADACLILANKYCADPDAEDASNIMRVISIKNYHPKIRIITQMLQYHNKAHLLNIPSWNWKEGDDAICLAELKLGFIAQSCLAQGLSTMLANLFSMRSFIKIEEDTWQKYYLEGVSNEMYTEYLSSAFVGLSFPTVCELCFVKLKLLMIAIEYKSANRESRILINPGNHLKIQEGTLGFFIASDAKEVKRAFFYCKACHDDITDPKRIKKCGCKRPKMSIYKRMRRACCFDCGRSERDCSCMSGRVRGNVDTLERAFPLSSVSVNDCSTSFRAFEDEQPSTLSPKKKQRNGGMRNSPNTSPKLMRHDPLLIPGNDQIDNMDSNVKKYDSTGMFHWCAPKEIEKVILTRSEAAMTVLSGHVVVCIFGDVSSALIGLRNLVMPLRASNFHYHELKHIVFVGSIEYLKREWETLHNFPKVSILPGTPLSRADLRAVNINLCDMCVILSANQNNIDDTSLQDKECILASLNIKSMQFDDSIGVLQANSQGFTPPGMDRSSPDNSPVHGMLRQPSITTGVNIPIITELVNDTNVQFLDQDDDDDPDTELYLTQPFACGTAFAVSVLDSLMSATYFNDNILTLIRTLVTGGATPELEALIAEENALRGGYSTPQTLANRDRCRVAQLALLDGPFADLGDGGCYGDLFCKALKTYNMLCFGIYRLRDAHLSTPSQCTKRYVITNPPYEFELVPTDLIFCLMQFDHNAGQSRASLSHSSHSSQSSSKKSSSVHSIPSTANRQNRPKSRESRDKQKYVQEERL

CNC(=O)O/N=C/C(C)(C)SC [aldicarb]
concentrations of aldicarb at which paralysis is displayed ([1]; ethanol-resistant mutants (BZ6, BZ7, BZ8, BZ73)): 0.1 to 0.25 mM
effect of aldicarb ([1]; wild-type animals, 0.1-0.25 mM): only mildly affect

CCO [ethanol]
decrease in speed ([2]; dgk-1(sy428)): 40%
decrease in speed ([2]; egl-30(js126gf)): 40%
decrease in speed ([2]; slo-1(js118) animals carrying a BK3.1 transgene (SLO-1 only in neurons)): 70%
decrease in speed ([2]; slo-1(js118) animals carrying a BK4.1 transgene (SLO-1 only in body muscle)): little or no decrease in speed
decrease in speed ([2]; slo-1(js118) animals, intoxicating doses of ethanol): no decrease in speed
decrease in speed ([2]; three slo-1 mutations js118, eg6 and eg73, ethanol dose giving 60% decrease in wild-type): no decrease in speed
effect on locomotion ([2]; wild-type animals, 400 mM ethanol): severe uncoordination and lethargy
decrease in speed ([2]; wild-type animals, intoxicating doses of ethanol): 60%
effect on egg-laying ([3]; BZ6, BZ7 and BZ73 worms, high doses of ethanol): unaffected
effect on egg-laying ([3]; BZ6, BZ7 and BZ73 worms, low doses (e.g. 50-100 mM exogenous concentration)): lay more eggs than wild-type worms
effect on egg-laying ([3]; BZ8, high doses of ethanol): did not display this ethanol-resistance
decrease in egg laying ([3]; egl-30(js126)): 72%
decrease in egg laying ([3]; goa-1(n1134)): 80%
decrease in egg laying ([3]; slo-1(eg24)): 12%
decrease in egg laying rate ([3]; slo-1(eg142)): no decrease in egg laying rate
effect on egg-laying ([3]; wild-type C. elegans, high doses (e.g. 400 mM exogenous concentration)): almost completely suppress egg-laying
decrease in egg laying ([3]; wild-type strain): 96%

c1ccc([C@H]2CN3CCSC3=N2)cc1 [levamisole]
response to levamisole ([4]; BZ6, BZ7 and BZ73, 60-100 μM): wild-type response
response to levamisole ([4]; BZ8): hypersensitive

Iberiotoxin (QFTDVDCSVSKECWSVCKDLFGVDRGKCMGKKCRCYQ; UniProt P24663 1-37, looked up)
effective concentration as blocker of BK channels [5]: about 10 nM

From patent US20030211547A1 (priority 2002, published 2003)
